Counter-ions that a name gives are not always drawn.
target: T1, recombinant full-length USP7 (Homo sapiens, UniProt Q93009); assay: USP7-mediated ubiquitin-rhodamine cleavage assay; format: biochemical; conditions: recombinant full-length USP7 62 pM; ubiquitin-rhodamine 100 nM; 30-minute incubation with compound, 1 hour reaction at room temperature; read-out: Potency: USP7 IC50
T1 construct: A 25 μl reaction volume containing recombinant full-length USP7 (62 pM)
Summary of the method: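 Full-length recombinant USP7 (62 pM) in 20 mM HEPES pH 7.3, 150 mM NaCl, 1 mM TCEP, 125 μg/ml BSA, 1% DMSO, preincubated with compound 30 min at RT. Ubiquitin-rhodamine (100 nM final) cleaved 1 h at RT in the dark, stopped with acetic acid; rhodamine fluorescence read, IC50 by 4-parameter nonlinear fit.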

T1 sequence (Q93009 whole entry): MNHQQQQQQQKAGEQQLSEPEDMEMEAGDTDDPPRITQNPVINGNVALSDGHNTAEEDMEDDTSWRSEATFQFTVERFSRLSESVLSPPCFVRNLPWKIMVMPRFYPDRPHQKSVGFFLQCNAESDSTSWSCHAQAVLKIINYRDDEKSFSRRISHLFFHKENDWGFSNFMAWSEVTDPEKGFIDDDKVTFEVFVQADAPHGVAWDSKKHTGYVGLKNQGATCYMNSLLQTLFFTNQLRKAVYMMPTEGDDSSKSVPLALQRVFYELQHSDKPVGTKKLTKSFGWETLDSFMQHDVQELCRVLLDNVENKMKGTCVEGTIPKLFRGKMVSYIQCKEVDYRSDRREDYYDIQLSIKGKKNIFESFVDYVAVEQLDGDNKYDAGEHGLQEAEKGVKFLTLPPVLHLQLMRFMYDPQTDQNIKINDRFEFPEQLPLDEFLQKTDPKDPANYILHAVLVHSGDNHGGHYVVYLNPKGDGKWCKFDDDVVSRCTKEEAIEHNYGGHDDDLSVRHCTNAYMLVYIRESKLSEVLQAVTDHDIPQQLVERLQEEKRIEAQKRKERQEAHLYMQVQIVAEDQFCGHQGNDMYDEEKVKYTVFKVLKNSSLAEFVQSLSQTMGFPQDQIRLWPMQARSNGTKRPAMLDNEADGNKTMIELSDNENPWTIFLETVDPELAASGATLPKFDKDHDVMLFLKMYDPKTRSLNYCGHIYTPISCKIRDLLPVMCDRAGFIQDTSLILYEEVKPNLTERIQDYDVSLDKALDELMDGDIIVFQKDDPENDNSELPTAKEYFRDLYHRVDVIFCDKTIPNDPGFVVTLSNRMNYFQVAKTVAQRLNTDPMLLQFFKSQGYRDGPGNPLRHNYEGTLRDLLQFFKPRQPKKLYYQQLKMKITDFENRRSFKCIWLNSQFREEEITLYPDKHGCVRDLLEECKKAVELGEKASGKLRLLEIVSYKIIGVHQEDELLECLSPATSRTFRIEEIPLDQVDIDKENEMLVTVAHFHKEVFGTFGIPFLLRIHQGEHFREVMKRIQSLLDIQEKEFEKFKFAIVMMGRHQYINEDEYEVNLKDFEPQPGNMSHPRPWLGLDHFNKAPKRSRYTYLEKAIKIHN

Row | IC50 | Compound
1 | < 1000 nM | Cc1cc(Cl)cc(-c2ncnc3cc(CN4C(=O)C5C(C4=O)C5(C)C)sc23)c1OC1CCNC1(C)C (stereo not shown) [Example 370, 3-[[4-[5-chloro-2-(2,2-dimethylpyrrolidin-3-yl)oxy-3-methyl-phenyl]thieno[3,2-d]pyrimidin-6-yl]methyl]-6,6-dimethyl-3-azabicyclo[3.1.0]hexane-2,4-dione]
2 | < 1000 nM | Cc1cc(Cl)cc(-c2ncnc3cc(Cn4c(=O)ccn(C)c4=O)sc23)c1O[C@H]1CCCNC1 [Example 251, (S)-3-((4-(5-Chloro-3-methyl-2-(piperidin-3-yloxy)phenyl)thieno[3,2-d]pyrimidin-6-yl)methyl)-1-methylpyrimidine-2,4(1H,3H)-dione]
3 | < 1000 nM | CCN1CCC(Oc2c(C)cc(Cl)cc2-c2ccnc3cc(CN4C(=O)CCC4=O)sc23)CC1 [Example 176, 1-((7-(5-Chloro-2-((1-ethylpiperidin-4-yl)oxy)-3-methylphenyl)thieno[3,2-b]pyridin-2-yl)methyl)pyrrolidine-2,5-dione]
4 | 1000 to 10000 nM | Cc1cc(Cl)cc(-c2ccnc3cc(CN4C(=O)CCC4=O)sc23)c1OC1CCN(C2COC2)CC1 [Example 207, 1-((7-(5-Chloro-3-methyl-2-((1-(oxetan-3-yl)piperidin-4-yl)oxy)phenyl)thieno[3,2-b]pyridin-2-yl)methyl)pyrrolidine-2,5-dione]
5 | 1000 to 10000 nM | CCC(O)c1cc2nccc(-c3cc(C#N)cc(C)c3OCC3(C)CNC3)c2s1 (stereo not shown) [Example 31, 3-(2-(1-Hydroxypropyl)thieno[3,2-b]pyridin-7-yl)-5-methyl-4-((3-methylazetidin-3-yl)methoxy)benzonitrile]
6 | 10000 to 30000 nM | CCC(O)c1cc2nccc(-c3cc(Cl)cc(C)c3OC(C)C3CNC3)c2s1 (stereo not shown) [Example 34, 1-(7-(2-(1-(Azetidin-3-yl)ethoxy)-5-chloro-3-methylphenyl)thieno[3,2-b]pyridin-2-yl)propan-1-ol]
7 | < 1000 nM | Cc1cc(Cl)cc(-c2ccnc3cc(CN4C(=O)SC(C)(C)C4=O)sc23)c1O[C@@H]1CNC[C@@H]1F [Example 145, 3-((7-(5-Chloro-2-(((3R,4S)-4-fluoropyrrolidin-3-yl)oxy)-3-methylphenyl)thieno[3,2-b]pyridin-2-yl)methyl)-5,5-dimethylthiazolidine-2,4-dione]
8 | < 1000 nM | Cc1cc(Cl)cc(-c2ncnc3cc(CN4C(=O)C5CC5C4=O)sc23)c1O[C@@H]1CN(C)C[C@@H]1F (stereo partly drawn) [Example 353, 3-[[4-[5-chloro-2-[(3R,4S)-4-fluoro-1-methyl-pyrrolidin-3-yl]oxy-3-methyl-phenyl]thieno[3,2-d]pyrimidin-6-yl]methyl]-3-azabicyclo[3.1.0]hexane-2,4-dione dihydrochloride]
9 | 1000 to 10000 nM | OCc1cc2nccc(-c3cc(Cl)ccc3OCC3CNC3)c2s1 [Example 29, (7-(2-(Azetidin-3-ylmethoxy)-5-chlorophenyl)thieno[3,2-b]pyridin-2-yl)methanol]
10 | 10000 to 30000 nM | Cc1cc(C#N)cc(-c2ncnc3ccsc23)c1OCC1(C)CNC1 [Example 24, 3-Methyl-4-((3-methylazetidin-3-yl)methoxy)-5-(thieno[3,2-d]pyrimidin-4-yl)benzonitrile]
11 | 10000 to 30000 nM | Cc1cc(Cl)cc(-c2ccnc3cc(CO)sc23)c1O[C@@H]1CN[C@@H](C(C)(C)O)C1 [Example 71, 2-((2R,4S)-4-(4-Chloro-2-(2-(hydroxymethyl)thieno[3,2-b]pyridin-7-yl)-6-methylphenoxy)pyrrolidin-2-yl)propan-2-ol]
12 | < 1000 nM | Cc1cc(Cl)cc(-c2ncnc3cc(CN4C(=O)C5C(C4=O)C5(C)C)sc23)c1OCC1(C)CNC1 (stereo not shown) [Example 395, 3-[[4-[5-chloro-3-methyl-2-[(3-methylazetidin-3-yl)methoxy]phenyl]thieno[3,2-d]pyrimidin-6-yl]methyl]-6,6-dimethyl-3-azabicyclo[3.1.0]hexane-2,4-dione]
13 | < 1000 nM | Cc1cc(Cl)cc(-c2ccnc3cc(CN4C(=O)C5CCCC5C4=O)sc23)c1O[C@@H]1CNC[C@@H]1F (stereo partly drawn) [Example 141, 2-((7-(5-Chloro-2-(((3R,4S)-4-fluoropyrrolidin-3-yl)oxy)-3-methylphenyl)thieno[3,2-b]pyridin-2-yl)methyl)tetrahydrocyclopenta[c]pyrrole-1,3(2H,3aH)-dione]
14 | < 1000 nM | Cc1cc(Cl)cc(-c2ccnc3cc(CN4C(=O)C5CC5C4=O)sc23)c1O[C@@H]1CNC[C@@H]1C (stereo partly drawn) [Example 327, 3-[[7-[5-chloro-3-methyl-2-[(3S,4S)-4-methylpyrrolidin-3-yl]oxy-phenyl]thieno[3,2-b]pyridin-2-yl]methyl]-3-azabicyclo[3.1.0]hexane-2,4-dione]
15 | < 1000 nM | Cc1cc(Cl)cc(-c2ccnc3cc(CN4C(=O)SC(C)(C)C4=O)sc23)c1O[C@H]1CCCNC1 [Example 295, 3-[[7-[5-chloro-3-methyl-2-[[(3S)-3-piperidyl]oxy]phenyl]thieno[3,2-b]pyridin-2-yl]methyl]-5,5-dimethyl-thiazolidine-2,4-dione; 2,2,2-trifluoroacetic acid]
16 | < 1000 nM | O=C1CCC(=O)N1Cc1cc2nccc(-c3cc(Cl)cc(C(F)(F)F)c3O[C@@H]3CNC[C@@H]3F)c2s1 [Example 120, 1-((7-(5-Chloro-2-(((3R,4S)-4-fluoropyrrolidin-3-yl)oxy)-3-(trifluoromethyl)phenyl)thieno[3,2-b]pyridin-2-yl)methyl)pyrrolidine-2,5-dione]
17 | < 1000 nM | CCC(O)c1cc2nccc(-c3cc(Cl)cc(C)c3OCC3(CC)CNC3)c2s1 (stereo not shown) [Example 38, 1-(7-(5-Chloro-2-((3-ethylazetidin-3-yl)methoxy)-3-methylphenyl)thieno[3,2-b]pyridin-2-yl)propan-1-ol]
18 | 1000 to 10000 nM | OCc1cc2nccc(-c3cc(Cl)cc(Br)c3O[C@H]3CCCNC3)c2s1 [Example 166, (S)-(7-(3-Bromo-5-chloro-2-(piperidin-3-yloxy)phenyl)thieno[3,2-b]pyridin-2-yl)methanol]
19 | < 1000 nM | CCN1C[C@H](F)[C@H](Oc2c(C)cc(Cl)cc2-c2ccnc3cc(CN4C(=O)CCC4=O)sc23)C1 [Example 299, 1-[[7-[5-chloro-2-[(3R,4S)-1-ethyl-4-fluoro-pyrrolidin-3-yl]oxy-3-methyl-phenyl]thieno[3,2-b]pyridin-2-yl]methyl]pyrrolidine-2,5-dione]
20 | 1000 to 10000 nM | Cc1cc(Cl)cc(-c2ccnc3cc(CO)sc23)c1OCC1CNC1 [Example 19, (7-(2-(Azetidin-3-ylmethoxy)-5-chloro-3-methylphenyl)thieno[3,2-b]pyridin-2-yl)methanol]

same assay, conditions: recombinant full-length USP7 62 pM; ubiquitin-rhodamine 100 nM; 30-minute pre-incubation, 1 hour reaction at room temperature; read-out: Potency (USP7 IC50)

Row | IC50 | Compound
21 | < 1000 nM | Cc1cc(Cl)cc(-c2ccnc3cc(Cn4c(=O)ccn(C)c4=O)sc23)c1O[C@H]1CCN(C(C)C)C[C@@H]1F [Example 473, 3-[[7-[5-chloro-2-[[(3S,4S)-3-fluoro-1-isopropyl-4-piperidyl]oxy]-3-methyl-phenyl]thieno[3,2-b]pyridin-2-yl]methyl]-1-methyl-pyrimidine-2,4-dione; 2,2,2-trifluoroacetic acid]
22 | < 1000 nM | Cc1cc(Cl)cc(-c2ccnc3cc(Cn4c(=O)ccn(CC(F)(F)F)c4=O)sc23)c1O[C@H]1CNC[C@@H]1C [Example 627, 3-[[7-[5-chloro-3-methyl-2-[(3R,4S)-4-methylpyrrolidin-3-yl]oxy-phenyl]thieno[3,2-b]pyridin-2-yl]methyl]-1-(2,2,2-trifluoroethyl)pyrimidine-2,4-dione]
23 | < 1000 nM | Cc1cc(Cl)cc(-c2ccnc3cc(Cn4c(=O)ccn(C)c4=O)sc23)c1OC1CC2CC1N(C(C)C)C2 (stereo not shown) [Example 474, 3-[[7-[5-chloro-2-[(3-isopropyl-3-azabicyclo[2.2.1]heptan-5-yl)oxy]-3-methyl-phenyl]thieno[3,2-b]pyridin-2-yl]methyl]-1-methyl-pyrimidine-2,4-dione]
24 | < 1000 nM | Cc1cc(Cl)cc(-c2ccnc3cc(Cn4c(=O)ccn(CC(F)(F)F)c4=O)sc23)c1O[C@@H]1CN[C@@H](C(C)(C)O)C1 [Example 635, 3-[[7-[5-chloro-2-[(3S,5R)-5-(1-hydroxy-1-methyl-ethyl)pyrrolidin-3-yl]oxy-3-methyl-phenyl]thieno[3,2-b]pyridin-2-yl]methyl]-1-(2,2,2-trifluoroethyl)pyrimidine-2,4-dione]
25 | < 1000 nM | Cc1cc(Cl)cc(-c2ccnc3cc(Cn4c(=O)ccn(CC(F)(F)F)c4=O)sc23)c1O[C@H]1CCCNC1 [Example 484, 3-[[7-[5-chloro-3-methyl-2-[[(3S)-3-piperidyl]oxy]phenyl]thieno[3,2-b]pyridin-2-yl]methyl]-1-(2,2,2-trifluoroethyl)pyrimidine-2,4-dione]
26 | < 1000 nM | Cc1cc(Cl)cc(-c2ccnc3cc(Cn4c(=O)ccn(C)c4=O)sc23)c1O[C@@H]1CCN[C@H]1C(=O)O [Example 602, (2R,3R)-3-[4-chloro-2-methyl-6-[2-[(3-methyl-2,6-dioxo-pyrimidin-1-yl)methyl]thieno[3,2-b]pyridin-7-yl]phenoxy]pyrrolidine-2-carboxylic acid]
27 | < 1000 nM | Cc1cc(Cl)cc(-c2ncnc3cc(Cn4c(=O)ccn(C(C)C)c4=O)sc23)c1O[C@H]1CCNC[C@@H]1F [Example 564, 3-[[4-[5-chloro-2-[[(3S,4S)-3-fluoro-4-piperidyl]oxy]-3-methyl-phenyl]thieno[3,2-d]pyrimidin-6-yl]methyl]-1-isopropyl-pyrimidine-2,4-dione]
28 | < 1000 nM | Cc1cc(Cl)cc(-c2ccnc3cc(Cn4c(=O)ccn(CC(F)(F)F)c4=O)sc23)c1O[C@H]1CC[C@H](C)NC1 [Example 598, 3-[[7-[5-chloro-3-methyl-2-[[(3S,6S)-6-methyl-3-piperidyl]oxy]phenyl]thieno[3,2-b]pyridin-2-yl]methyl]-1-(2,2,2-trifluoroethyl)pyrimidine-2,4-dione; 2,2,2-trifluoroacetic acid]
